Measured values published in patent publication US20230027295A1, “FXIA INHIBITORS AND PREPARATION METHOD THEREFOR AND PHARMACEUTICAL USE THEREOF” (Shenzhen Salubris Pharmaceuticals Co., Ltd., priority 2019, published 2023).

Key:
[1] = Cynomolgus monkey pharmacokinetics; format: in vivo; parameters: AUC: concentration or dose not given beside the values
Source text: Example 53: Investigation of the Pharmacokinetic Characteristics of the Compounds of the Present Invention
SD rats: male, 180-250 g, purchased from Guangdong Medical Laboratory Animal Center. Cynomolgus monkey: male, 4-6 kg, purchased from Guangzhou Chunsheng Biological Research Institute Co., Ltd. Beagle dog: male, 8-12 kg, developed in Kanglong Chemical (Ningbo) New Drug Technology Co., Ltd.
Reagents: DMSO (dimethyl sulfoxide), PEG-400 (polyethylene glycol 400), normal brine, heparin, acetonitrile, formic acid, and propranolol (internal standard) are commercially available.
Instrumentation: Thermo Fisher Scientific LC-MS (U300 UPLC, TSQ […] ULTRA triple quadrupole mass spectrometer).
The compound was weighed and dissolved in DMSO-PEG-400-physiological brine (5:60:35, v/v/v) system. After the rats/monkeys were administered intravenously or by gavage, 200 μL of venous blood was collected at 5 min (not collected when administered by gavage), 15 min, 30 min, 1 h, 2 h, 4 h, 6 h, 8 h, and 24 h in heparinized EP tubes, centrifuged at 12000 rpm for 2 min, and the plasma was frozen at −80° C. for testing. A certain amount of the test substance was precisely weighed and dissolved in DMSO to 1 mg/mL, which was used as a stock solution. An appropriate amount of compound stock solution was accurately pipetted and diluted with acetonitrile to prepare a standard series of solutions. 20 μL of each of the above standard series solutions were accurately pipetted, added with 180 μL of blank plasma, vortexed and mixed to prepare plasma samples equivalent to plasma concentrations of 1, 3, 10, 30, 100, 300, 1000, 3000 and 5000 ng/mL. Two-sample analysis was performed for each concentration to establish a standard curve. 20 μL of plasma was taken out, added with 200 μL of internal standard propranolol (5 ng/mL) in acetonitrile, vortexed and mixed. It was centrifuged at 4000 rpm for 5 min, and the supernatant was collected for LC-MS analysis. LC-MS detection conditions were as follows:
Chromatographic column: Thermo Scientific […] GOLD C-18 UPLC column, 100*2.1 mm, 1.9 μm.
Mobile phase: water (0.1% formic acid)-acetonitrile for gradient elution according to the table below.
After blood drug concentrations being detected by LC-MS, WinNonlin 6.1 software was used to calculate pharmacokinetic parameters by non-compartmental model method.

Caco-2 permeability = format: in vitro ADME; conditions: human
Method: Example 54: Investigation of the Caco-2 Data of the Compounds of the Present Invention
Medium: DMEM (Corning), FBS (Corning), double antibody (Solarbio), 96-well HTS transwell plate (Corning), Caco-2 cells.
Experimental method: Caco-2 cells were cultured on 96-well HTS transwell plate for 14-18 days, and the TEER value of each well was detected to ensure that the cells in each well formed a complete monolayer. Drug was added and it was incubated for 2h to detect the drug concentrations of A-B and B-A.
Data processing: PappA-B and PappB-A values were calculated: Papp=(VA×[drug]acceptor)/(Area×Time×[drug]initial, donor); Efflux Ratio was calculated: Efflux Ratio=Papp(B-A)/Papp(A-B).

[2] = Caco-2 monolayer, 2h incubation

F ([1]; ig): 4.1%
AUC ([1]; male, plasma, iv): 4220 ng·h/mL
Cmax ([1]; male, plasma, iv): 8760 ng/mL
Tmax ([1]; male, plasma, iv): 0.083 h
clearance ([1]; male, plasma, iv): 4.1 mL/min/kg
half-life ([1]; male, plasma, iv): 1.2 h
Vd ([1]; male, plasma, iv, read-out: Vss): 0.2 L/kg
AUC ([1]; male, plasma, po, ig): 1490 ng·h/mL
Cmax ([1]; male, plasma, po, ig): 108 ng/mL
Tmax ([1]; male, plasma, po, ig): 2 h
half-life ([1]; male, plasma, po, ig): 8 h
efflux ratio at 2 h (Caco-2 permeability; Caco-2, Papp(B-A)/Papp(A-B)): 8.75
Papp A→B at 2 h (Caco-2 permeability; [2]): 1.55 ×10⁻⁶ cm/s
Papp B→A at 2 h (Caco-2 permeability; [2]): 13.6 ×10⁻⁶ cm/s
SMILES: COc1cn([C@@H](Cc2ccccc2)C(=O)Nc2ccc(C(=O)O)cc2)c(=O)cc1-c1cc(Cl)ccc1C(C)=O [Compound B, (S)-4-(2-(4-(2-acetyl-5-chlorophenyl)-5-methoxy-2-oxopyridinium-1(2H)-yl)-3-phenylpropanamido)benzoic acid, reference compound]
